Data on three compounds can be found in patent US20070093484A1, “3-Substituted 5,6-diaryl-pyrazine-2-carboxamide and -2-sulfonamide derivatives as cb1 modulators” (ASTRAZENECA AB, priority 2003, published 2007).

Structures are written as SMILES.

This test deals with T1, CB1 receptor (Homo sapiens, UniProt P21554).
T1 construct: expressed in transfected cells
Description: [35S]-GTPγS binding assay, inhibition of CP55940-stimulated activity in membranes from CB1-transfected cells. It is filed as biochemical. The settings on record: membranes from cells stably transfected with the CB1 gene; EC80 concentration of agonist CP55940; 30° C., 45 min; read-out: IC50 (concentration required to give half maximal inhibition of GTPγS binding). From the text: Compounds of the present invention are active against the receptor product of the CB1 gene. The compounds of the present invention are active at the CB 1 receptor (IC50<1 micromolar). Most preferred compounds have IC50<200 nanomolar. The affinity of the compounds of the invention for central cannabinoid receptors is demonstrable in methods described in Devane et al, Molecular Pharmacology, 1988, 34,605 or those described in WO 01/70700 or EP 656354. Alternatively the assay may be performed as follows.
10 μg of membranes prepared from cells stably transfected with the CB1 gene were suspended in 200 μl of 100 mM NaCl, 5 mM MgCl2, 1 mM EDTA, 50 mM HEPES (pH 7.4), 1 mM DTT, 0.1% BSA and 100 μM GDP. To this was added an EC80 concentration of agonist CP55940), the required concentration of test compound and 0.1 μCi [^35S]-GTPγS. The reaction was allowed to proceed at 30° C. for 45 nun. Samples were then transferred on to GF/B filters using a cell harvester and washed with wash buffer (50 mM Tris (pH 7.4), 5 mM MgCl2, 50 mM NaCl). Filters were then covered with scintilant and counted for the amount of [35]-GTPγS retained by the filter.
Activity is measured in the absence of all ligands (minimum activity) or in the presence of an EC80 concentration of CP55940 (maximum activity). These activities are set as 0% and 100% activity respectively. At various concentrations of novel ligand, activity is calculated as a percentage of the maximum activity and plotted. The data are fitted using the equation y=A+((B−A)/1+((C/x)UD)) and the IC50 value determined as the concentration required to give half maximal inhibition of GTPγS binding under the conditions used.
A general note: GTPγS resists hydrolysis and so accumulates on activated G proteins.

T1 sequence (P21554 whole entry): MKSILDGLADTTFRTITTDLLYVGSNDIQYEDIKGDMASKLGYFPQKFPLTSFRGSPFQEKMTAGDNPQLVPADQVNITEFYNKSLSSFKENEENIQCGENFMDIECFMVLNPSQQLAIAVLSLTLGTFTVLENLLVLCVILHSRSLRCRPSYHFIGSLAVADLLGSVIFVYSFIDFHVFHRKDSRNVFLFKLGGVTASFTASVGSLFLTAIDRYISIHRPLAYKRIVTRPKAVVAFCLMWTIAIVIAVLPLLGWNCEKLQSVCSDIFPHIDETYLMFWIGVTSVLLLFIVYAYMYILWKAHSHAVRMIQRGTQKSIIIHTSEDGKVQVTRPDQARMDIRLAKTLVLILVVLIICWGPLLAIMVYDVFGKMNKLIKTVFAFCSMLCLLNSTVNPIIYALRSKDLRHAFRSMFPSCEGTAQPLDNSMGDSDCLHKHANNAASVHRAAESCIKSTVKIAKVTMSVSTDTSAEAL

On to `CC(C)(C)NNC(=O)c1nc(-c2ccc(Cl)cc2)c(-c2ccc(Cl)cc2)nc1C(=O)OC(C)(C)C` [Example 9], for which the IC50 was 1.8 nM.
The value for `O=C(NN1CCCCC1)c1nc(-c2ccc(Cl)cc2)c(-c2ccc(Cl)cc2)nc1CN1CCOCC1` [Example 27, 5,6-bis(4-chlorophenyl)-3-(morpholin-4-ylmethyl)-N-piperidin-1-ylpyrazine-2-carboxamide] was 13.5 nM; that for `Cc1ccc(-c2nc(Cn3cnnn3)c(C(=O)NN3CCCCC3)nc2-c2ccc(C)cc2)cc1` [Example 35, 5,6-Bis(4-methylphenyl)-N-piperidin-1-yl-3-(1H-tetrazol-1-ylmethyl)pyrazine-2-carboxamide] was 1.4 nM.
